The values below come from US20240262806A1, “INHIBITORS OF NLRP3” (PTC THERAPEUTICS, INC., priority 2021, published 2024).

This assay deals with NLRP3 inflammasome. The assay can be described thus: IL-1β Secretion Assay (NLRP3-dependent IL-1β secretion in PMA-differentiated THP-1 cells, nigericin activation, HTRF). Particulars: Homo sapiens, THP-1, THP-1 cells, 100 ng/mL PMA 24 h, compound 20 h, 2.5 μM Nigericin 3 h; read-out: IC50 IL-1β Inhibition. The class given is cell-based. A digest of the protocol:
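PMA-differentiated THP-1 cells in RPMI with 5% FBS were treated with compounds at 7 concentrations in threefold DMSO dilutions. NLRP3 was activated with nigericin and secreted IL-1β measured by HTRF. IC50 from a logistic fit of percent inhibition versus concentration.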
In the case of `Oc1cc(C(F)(F)F)ccc1-c1nnc(N[C@@H]2CCCN(C3CCOCC3)C2)c2cnccc12` [Compound I-279], the IC50 was below 1 nM. Consider `CN1C[C@H](F)C[C@@H](Nc2nnc(-c3ccc(C(F)(F)F)cc3O)c3ccncc23)C1` [Compound I-280], for which the IC50 is below 1 nM. Consider `Oc1cc(C(F)(F)F)ccc1-c1nnc(N[C@@H]2CCCN(C3CCOC3)C2)c2cnccc12` (some centres unmarked) [Compound I-281], for which the IC50 is below 1 nM. The same measure for `OCCN1CCC[C@@H](Nc2nnc(-c3c(O)cc(Cl)cc3F)c3ccncc23)C1` [Compound I-282, 5-Chloro-3-fluoro-2-[4-[[(3R)-1-(2-hydroxyethyl)-3-piperidyl]amino]pyrido[3,4-d]-pyridazin-1-yl]phenol]: below 1 nM. As for `Oc1cc(C(F)(F)F)ccc1-c1nnc(N[C@@H]2CCCN(CC(F)(F)F)C2)c2cnccc12` [Compound I-283], the IC50 is below 1 nM.

For `OCCN1CCC[C@@H](Nc2nnc(-c3c(O)cc(C4CC4)cc3F)c3ccncc23)C1` [Compound I-284, 5-Cyclopropyl-3-fluoro-2-[4-[[(3R)-1-(2-hydroxyethyl)-3-piperidyl]amino]-pyrido[3,4-d]pyridazin-1-yl]phenol], the IC50 was below 1 nM. Next, `OCCN1CCC[C@@H](Nc2nnc(-c3c(O)cccc3F)c3ccncc23)C1` [Compound I-285, 3-Fluoro-2-[4-[[(3R)-1-(2-hydroxyethyl)-3-piperidyl]amino]pyrido[3,4-d]pyridazin-1-yl]phenol]: 1 to 10 nM; `CC(C)(O)CN1CCC[C@@H](Nc2nnc(-c3ccc(C(F)(F)F)cc3O)c3ccncc23)C1` [Compound I-286]: below 1 nM; `COc1ccc(-c2nnc(N[C@@H]3CCCN(C)C3)c3cnccc23)c(C(F)F)c1` [Compound I-287]: 1 to 10 nM. Next, `Oc1cc(C(F)(F)F)ccc1-c1nnc(NC2CCCCC2)c2cnccc12` [Compound I-288]: 1 to 10 nM; `CN1CCC[C@@H](Nc2nnc(-c3ccc(Cl)cc3C(F)(F)F)c3ccncc23)C1` [Compound I-289]: 1 to 10 nM; `Cc1cc(C(F)(F)F)ccc1-c1nnc(N[C@@H]2CCCN(C)C2)c2cnccc12` [Compound I-290]: 1 to 10 nM. Consider `CC(C)Oc1cc(C(F)(F)F)ccc1-c1nnc(N[C@@H]2CCCN(C)C2)c2cnccc12` [Compound I-291], for which the IC50 was 1 to 10 nM. For `CN(c1nnc(-c2ccc(C(F)(F)F)cc2O)c2ccncc12)[C@@H]1CCCNC1` [Compound I-292, (R)-2-(4-(Methyl(piperidin-3-yl)amino)pyrido[3,4-d]pyridazin-1-yl)-5-(trifluoromethyl)phenol], the concentration for half-maximal inhibition (IC50) fell in the range of 1 to 10 nM.

For `Oc1cc(C(F)(F)F)ccc1-c1nnc(N[C@@H]2CCCN(CCOC(F)F)C2)c2cnccc12` [Compound I-293], the IC50 was below 1 nM. As to `Oc1cc(C(F)(F)F)ccc1-c1nnc(N[C@@H]2CCCN(CCCF)C2)c2cnccc12` [Compound I-294], the IC50 was below 1 nM. The same measure for `CC(C)N1CCC[C@@H](Nc2nnc(-c3ccc(C(F)(F)F)cc3O)c3ccncc23)C1` [Compound I-295]: below 1 nM.

Regarding `COc1ccc(-c2nnc(N[C@H]3CCCN(C)C3)c3cnccc23)c(C(C)C)c1` [Compound I-296], the IC50 was in the range of 1 to 10 nM. The same measure for `Cc1ccc(-c2nnc(N[C@@H]3CCCN(C)C3)c3cnccc23)c(C(F)(F)F)c1` [Compound I-298]: 1 to 10 nM. The same measure for `Cc1ccc(-c2nnc(N[C@@H]3CCCN(C)C3)c3cnccc23)c(C(F)F)c1` [Compound I-299]: below 1 nM; for `[2H]C1(N2CCC[C@@H](Nc3nnc(-c4ccc(C(F)(F)F)cc4O)c4ccncc34)C2)CCC1` [Compound I-300]: below 1 nM. Regarding `Oc1cc(C(F)(F)F)ccc1-c1nnc(N[C@H]2CNCC[C@H]2F)c2cnccc12` [Compound I-301], the concentration for half-maximal inhibition (IC50) lay in the range of 1 to 10 nM.

As for `CN1CCC(CNc2nnc(-c3ccc(C(F)(F)F)cc3O)c3ccncc23)CC1` [Compound I-302], the IC50 lay within 1 to 10 nM. The same measure for `OCCN1CCC(CNc2nnc(-c3ccc(C(F)(F)F)cc3O)c3ccncc23)CC1` [Compound I-303]: 1 to 10 nM; for `Cc1cc(O)c(-c2nnc(N[C@@H]3CCCN(C)C3)c3ncccc23)c(F)c1` [Compound I-304]: below 1 nM; for `C[C@]1(O)C[C@@H](Nc2nnc(-c3ccc(C(F)(F)F)cc3O)c3ccncc23)C1` [Compound I-305]: below 1 nM. For the compound `Oc1cc(C(F)(F)F)ccc1-c1nnc(N[C@H]2CNC[C@H](F)C2)c2cnccc12` [Compound I-306], the IC50 was below 1 nM. For the compound `CCc1ccc(-c2nnc(N[C@@H]3CCCN(C)C3)c3cnccc23)c(O)c1` [Compound I-307], the IC50 was below 1 nM. The same measure for `CO[C@H]1CCC[C@@H](Nc2nnc(-c3ccc(C(F)(F)F)cc3O)c3ccncc23)C1` [Compound I-308]: below 1 nM; for `Oc1cc(C(F)(F)F)ccc1-c1nnc(N[C@@H]2CCCOC2)c2cnccc12` [Compound I-309]: 1 to 10 nM; for `Oc1cc(C(F)(F)F)ccc1-c1nnc(N[C@H]2CCCOC2)c2cnccc12` [Compound I-310]: 1 to 10 nM. The same measure for `FC(F)Oc1cc(C(F)(F)F)ccc1-c1nnc(N[C@@H]2CCCNC2)c2cnccc12` [Compound I-311]: 1 to 10 nM; for `FC(F)Oc1cc(C(F)(F)F)ccc1-c1nnc(N[C@@H]2CCCN(C3CCC3)C2)c2cnccc12` [Compound I-312]: below 1 nM. Consider `CN1CCC[C@@H](Nc2nnc(-c3ccc(C(F)(F)F)cc3O)c3ccoc23)C1` [Compound I-313, (R)-2-(7-((1-Methylpiperidin-3-yl)amino)furo[2,3-d]pyridazin-4-yl)-5-(trifluoromethyl)phenol], for which the IC50 was below 1 nM. Consider `CN1CCC[C@@H](Nc2nnc(-c3ccc(Cl)cc3O)c3c2CCC3)C1` [Compound I-314], for which the IC50 lay in the range of 1 to 10 nM. Next, `CN1CC[C@@H](F)[C@@H](Nc2nnc(-c3ccc(C(F)(F)F)cc3O)c3ccncc23)C1` [Compound I-315]: below 1 nM.

As to `C[C@]1(O)C[C@H](Nc2nnc(-c3ccc(C(F)(F)F)cc3O)c3ccncc23)C1` [Compound I-316], the IC50 was 1 to 10 nM. Next, `OCCN1CCCC[C@@H](Nc2nnc(-c3ccc(C(F)(F)F)cc3O)c3ccncc23)C1` [Compound I-317]: 1 to 10 nM; `CCOC(=O)[C@@H]1CC[C@@H](Nc2nnc(-c3ccc(C(F)(F)F)cc3O)c3ccncc23)CN1C` [Compound I-318, Ethyl (2S,5R)-5-((1-(2-hydroxy-4-(trifluoromethyl)phenyl)pyrido[3,4-d]pyridazin-4-yl)amino)-1-methylpiperidine-2-carboxylate]: below 1 nM; `CN1CCC[C@@H](Nc2nnc(-c3ccc(OC(F)(F)F)cc3C(F)F)c3ccncc23)C1` [Compound I-319]: 1 to 10 nM.

As for `CN1CCC[C@@H](Nc2nnc(-c3cc(OC(F)(F)F)ccc3C(F)F)c3ccncc23)C1` [Compound I-320], the IC50 is 1 to 10 nM. Next, `Cc1ccn2c(N[C@@H]3CCCN(C)C3)nnc(-c3ccc(C(F)(F)F)cc3O)c12` [Compound I-321, (R)-2-(8-Methyl-4-((1-methylpiperidin-3-yl)amino)pyrrolo[1,2-d][1,2,4]triazin-1-yl)-5-(trifluoromethyl)phenol]: 10 to 100 nM; `CN1CCC[C@@H](Nc2nnc(-c3ccc(C(F)(F)F)cc3OC(F)F)c3cccn23)C1` [Compound I-322, 1-[2-(Difluoromethoxy)-4-(trifluoromethyl)phenyl]-N-[(3R)-1-methyl-3-piperidyl]pyrrolo[1,2-d][1,2,4]triazin-4-amine]: below 1 nM; `FC(F)OCCN1CCC[C@@H](Nc2nnc(-c3ccc(C(F)(F)F)cc3OC(F)F)c3cccn23)C1` [Compound I-323, 1-[2-(difluoromethoxy)-4-(trifluoromethyl)phenyl]-N-[(3R)-1-[2-(difluoromethoxy)ethyl]-3-piperidyl]pyrrolo[1,2-d][1,2,4]triazin-4-amine]: 1 to 10 nM. For the compound `FC(F)Oc1cc(C(F)(F)F)ccc1-c1nnc(N[C@@H]2CCCCCNC2)n2cccc12` [Compound I-324, 1-[2-(difluoromethoxy)-4-(trifluoromethyl)phenyl]-N-[(3R)-azocan-3-yl]pyrrolo[1,2-d][1,2,4]triazin-4-amine], the half-maximal inhibitory concentration (IC50) was 1 to 10 nM. The same measure for `OCCN1CCC[C@@H](Nc2nnc(-c3ccc(C(F)(F)F)cc3OC(F)F)c3cccn23)C1` [Compound I-325, 2-[(3R)-3-[[1-[2-(Difluoromethoxy)-4-(trifluoromethyl)phenyl]pyrrolo[1,2-d][1,2,4]triazin-4-yl]amino]-1-piperidyl]ethanol]: 1 to 10 nM; for `FC(F)Oc1cc(C(F)(F)F)ccc1-c1nnc(N[C@@H]2CCCN(C3CCOCC3)C2)n2cccc12` [Compound I-326]: below 1 nM; for `Cc1cc2c(-c3ccc(C4CC4)cc3O)nnc(N[C@@H]3CCCN(C)C3)n2n1` [Compound I-327]: 1 to 10 nM.

On to `Cc1cc2c(-c3ccc(C(F)(F)F)cc3O)nnc(N[C@@H]3CCCN(C)C3)n2n1` [Compound I-329, (R)-2-(2-methyl-7-((1-methylpiperidin-3-yl)amino)pyrazolo[1,5-d][1,2,4]triazin-4-yl)-5-(trifluoromethyl)phenol], for which the half-inhibitory concentration (IC50) is below 1 nM.

Consider `Cc1cc2c(-c3ccc(C(F)(F)F)cc3OC(F)F)nnc(N[C@@H]3CCCN(C)C3)n2n1` [Compound I-330], for which the IC50 was in the range of 1 to 10 nM. In the case of `Cc1cc2c(N[C@@H]3CCCNC3)nnc(-c3ccc(C(F)(F)F)cc3O)n2n1` [Compound I-332], the IC50 was in the range of 10 to 100 nM. Next, `CN1CCC[C@@H](Nc2nnc(-c3ccc(C(F)(F)F)cc3O)c3cncn23)C1` [Compound I-333, 2-[4-[[(3R)-1-Methyl-3-piperidyl]amino]imidazo[1,5-d][1,2,4]triazin-1-yl]-5-(trifluoromethyl)phenol]: below 1 nM. Take `Cc1cc2c(-c3ccc(Br)cc3O)nnc(N[C@@H]3CCCN(C)C3)n2n1` [Compound I-334]: the IC50 was below 1 nM.

As usually defined, the IC50 is the concentration at which inhibition is half-maximal.
